Results from paper PMC7568570, “Resensitizing carbapenem- and colistin-resistant bacteria to antibiotics using auranofin” (Nature Communications, 2020).

Target: T1, MCR-1 (Escherichia coli, UniProt A0A0R6L508)
T1 construct: gene mcr1; MCR-1-S, soluble periplasmic domain, residues 201-541 (200-541aa in Methods)
Assay: equilibrium dialysis with ICP-MS (Kd); crystal structure by soaking at […] Å; TLC cleavage inhibition of full-length MCR-1
Assay type: binding

T1 sequence (A0A0R6L508 201-541): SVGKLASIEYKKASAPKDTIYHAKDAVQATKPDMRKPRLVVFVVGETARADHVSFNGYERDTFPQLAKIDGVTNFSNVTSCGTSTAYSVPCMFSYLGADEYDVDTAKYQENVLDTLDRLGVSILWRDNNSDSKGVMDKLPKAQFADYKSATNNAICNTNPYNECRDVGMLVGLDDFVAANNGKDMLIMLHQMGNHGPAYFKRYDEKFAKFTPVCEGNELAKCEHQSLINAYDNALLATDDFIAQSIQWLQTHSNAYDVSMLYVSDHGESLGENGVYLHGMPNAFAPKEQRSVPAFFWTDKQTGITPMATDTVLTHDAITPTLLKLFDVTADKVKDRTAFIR

CC[P+](CC)(CC)[Au-][Cl] [Au(PEt3)Cl, chloro(triethylphosphine)gold(I)]
Kd: 3.36 ± 0.38 µM
